We go through 10 compounds from patent publication US6900193B1, “Structural modification of 19-norprogesterone I: 17-α-substituted-11-β-substituted-4-aryl and 21-substituted 19-norpregnadienedione as new antiprogestational agents” (The United States of America as represented by the …, priority 1996, dated 2005).

Assay [1] has as its target T1, progesterone receptor (estrogen-primed rabbit uterus) (Oryctolagus cuniculus, UniProt P06186).
T1 construct: preparation of cytosols for the progesterone and glucocorticoid receptor assays; from tissue; host or cells: uterus of estradiol-primed immature female New Zealand White rabbits (cytosol)
T1 sequence (P06186 1-930): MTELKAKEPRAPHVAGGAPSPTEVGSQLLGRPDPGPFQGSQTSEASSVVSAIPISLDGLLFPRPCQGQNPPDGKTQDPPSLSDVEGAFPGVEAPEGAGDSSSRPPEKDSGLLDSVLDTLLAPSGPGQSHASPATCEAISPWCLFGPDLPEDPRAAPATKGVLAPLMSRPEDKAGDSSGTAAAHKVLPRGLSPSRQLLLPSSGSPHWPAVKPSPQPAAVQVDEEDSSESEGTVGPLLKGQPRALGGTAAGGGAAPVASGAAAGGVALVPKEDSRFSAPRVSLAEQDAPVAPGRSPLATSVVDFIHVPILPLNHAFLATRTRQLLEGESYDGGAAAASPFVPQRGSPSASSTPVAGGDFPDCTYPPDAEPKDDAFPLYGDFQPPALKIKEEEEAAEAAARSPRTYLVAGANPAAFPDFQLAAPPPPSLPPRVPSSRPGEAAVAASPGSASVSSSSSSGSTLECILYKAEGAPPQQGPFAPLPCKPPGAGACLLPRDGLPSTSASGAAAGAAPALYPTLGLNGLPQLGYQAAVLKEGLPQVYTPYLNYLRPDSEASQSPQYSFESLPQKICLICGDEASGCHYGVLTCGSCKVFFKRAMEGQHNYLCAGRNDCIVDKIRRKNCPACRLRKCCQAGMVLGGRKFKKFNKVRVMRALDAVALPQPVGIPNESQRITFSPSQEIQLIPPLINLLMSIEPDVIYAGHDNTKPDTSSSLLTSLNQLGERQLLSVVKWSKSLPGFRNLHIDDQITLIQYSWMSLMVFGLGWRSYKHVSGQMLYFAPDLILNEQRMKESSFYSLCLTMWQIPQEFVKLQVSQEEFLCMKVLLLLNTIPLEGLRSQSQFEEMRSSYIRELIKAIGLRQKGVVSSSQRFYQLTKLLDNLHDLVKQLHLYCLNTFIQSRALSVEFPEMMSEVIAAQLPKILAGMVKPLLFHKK
Nature of the assay: Relative binding affinity, progesterone receptor. Conditions: for BINDING AFFINITY Progester: Table 2, estrogen-primed rabbit uterus, progesterone = 100%; for binding affinities compared with the standard, compound 69B: progesterone receptor implied (rabbit or human isoform A not specified). Here is the method: (§1) Relative Binding Affinities for the Progesterone and Glucocorticoid Receptors
(§2) Uteri and thymus glands were obtained from estradiol-primed immature female rabbits of the New Zealand White strain for preparation of cytosols for the progesterone and glucocorticoid receptor assays, respectively. Tissues were excised and immediately placed in ice cold TEGDM buffer (10 mM Tris, pH 7.4; 1.5 mM EDTA; 10% glycerol vol/vol/; 1 mM dithiothreitol [DTT]; and 20 mM sodium molybdate). The tissues were dissected free of connective tissue and fat, weighed and minced finely. Minced tissues were homogenized in 3 volumes TEGDM/gm with four 10 second bursts of a VirTis Cyclone set at half maximum speed with a 30 second cooling period (in ice) between bursts. Homogenates were centrifuged at 109,663 g at 4° C. for 1 hour to yield the soluble cytosol fiction. Aliquots of cytosol were snap frozen and stored at −75° C.
(§3) All binding assays were carried out at 2-6° C. for 16-18 hours. The following radioactive ligands were used: [1,2-^3H(N)]-progesterone (50.0 Ci/mmole) for the progesterone receptor (PR). […] For the progesterone receptor RBA assays 0.02 ml uterine cytosol or TEDGM buffer, 0.05 ml of various concentrations of test compounds or progesterone, 0.13 ml TEGDM buffer and 0.05 ml [^3H]-progesterone were added to duplicate tubes. For the glucocorticoid receptor RBA assays 0.1 ml thymus cytosol or TEDGM buffer, 0.05 ml of various concentrations of test compounds or dexamethasone, 0.05 ml TEGDM buffer and 0.05 ml [3H]-dexamethasone were added to duplicate tubes. For the estrogen receptor RBA assays 0.05 ml uterine cytosol, 0.1 ml TEGDM buffer, 0.05 ml of various concentrations of test compounds or estradiol and 0.05 ml [^3H]-estradiol were added to duplicate tubes. The concentrations of the test compounds, progesterone, dexamethasone and estradiol ranged from 0.05 to 100 nM and the concentrations of the competitors ranged from 0.5 to 500 nM. Total binding was measured at radioligand concentrations of 3.5 nM and nonspecific binding was measured in the presence of a 200-fold excess of unlabeled progesterone (PR), dexamethasone (GR) or diethylstilbestrol (ER), respectively.
(§4) In all incubations bound and free ligand were separated using dextra-coated charcoal (DCC). A 0.1 ml aliquot of DCC (0.5% charcoal/0.05% Dextran T-70) was added to each tube. The tubes were vortexed and incubated on ice for 10 minutes. Five-tenths ml TEG buffer (without DTT or molybdate) was then added to all tubes to improve supernatant recovery following centrifugation. The charcoal was pelleted by centrifugation at 2,100 g for 15 minutes at 4° C. The supernatants containing the [^3H]-steroid receptor complexes were decanted into vials containing 4 ml Optifluor (Packard Instrument Co.), vortexed, equilibrated in a liquid scintillation counter for 30 minutes and then counted for 2 minutes. This provided the quantity of receptor bound [^3H]-steroid at each competitor concentration.

For assay [2], the target named is T2, glucocorticoid receptor (estrogen-primed rabbit thymus) (Oryctolagus cuniculus, UniProt P59667).
T2 construct: preparation of cytosols for the progesterone and glucocorticoid receptor assays; from tissue; host or cells: thymus of estradiol-primed immature female New Zealand White rabbits (cytosol)
T2 sequence (P59667 1-772): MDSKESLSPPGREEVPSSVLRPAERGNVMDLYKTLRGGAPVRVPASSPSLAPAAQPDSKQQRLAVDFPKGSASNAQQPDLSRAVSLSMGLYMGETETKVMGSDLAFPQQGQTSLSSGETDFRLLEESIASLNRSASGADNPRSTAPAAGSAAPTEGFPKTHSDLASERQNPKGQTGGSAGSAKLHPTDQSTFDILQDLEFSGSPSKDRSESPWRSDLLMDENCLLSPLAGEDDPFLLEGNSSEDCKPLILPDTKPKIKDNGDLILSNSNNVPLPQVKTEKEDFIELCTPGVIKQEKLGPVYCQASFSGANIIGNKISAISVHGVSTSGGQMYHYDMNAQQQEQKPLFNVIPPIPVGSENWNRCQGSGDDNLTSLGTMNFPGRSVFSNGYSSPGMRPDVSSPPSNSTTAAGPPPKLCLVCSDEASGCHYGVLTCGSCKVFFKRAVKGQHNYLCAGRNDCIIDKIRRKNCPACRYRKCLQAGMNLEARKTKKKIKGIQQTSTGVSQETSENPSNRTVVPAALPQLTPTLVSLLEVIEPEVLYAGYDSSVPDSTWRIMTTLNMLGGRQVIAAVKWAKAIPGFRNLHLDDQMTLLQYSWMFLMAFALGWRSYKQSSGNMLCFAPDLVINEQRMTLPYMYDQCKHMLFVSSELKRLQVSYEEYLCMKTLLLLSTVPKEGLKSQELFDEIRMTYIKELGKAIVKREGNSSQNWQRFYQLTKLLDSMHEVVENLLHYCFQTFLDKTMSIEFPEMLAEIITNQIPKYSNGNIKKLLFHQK
In words: Relative binding affinity, glucocorticoid receptor. Conditions: Table 2; estrogen-primed rabbit thymus; dexamethasone = 100%. Here is the method: as §1, §2, §3, §4

Assay [3] concerns progesterone-induced endometrial proliferation. Nature of the assay: AntiClauberg test. The note with it: oral; for BIOLOGICAL ACTIVITY antiClauberg: Table 2, CDB-2914 = 100 (assigned). Format: in vivo, rabbit. Here is the method:
AntiClauberg Test (Clauberg, C., Zentr. Gynakol., 54:2757-2770 (1930)) Immature female rabbits of the New Zealand White breed (approx. 1 kg body weight) were maintained under standard laboratory conditions and received a subcutaneous injection of 5 μg estradiol in 10% ethanol/sesame oil daily for 6 consecutive days. Twenty-four hours after the last dose of estradiol (day 7) animals received progesterone by subcutaneous injection (0.8 mg/day) and the experimental compound in appropriate vehicle (usually 10% ethanol/sesame oil) orally or subcutaneously for five consecutive days. One group of rabbits received progesterone only. Twenty-four hours after the last dose all animals were sacrificed for removal of the uterus which was cleaned of all fat and connective tissue, weighed to the nearest 0.2 mg and placed in 10% neutral buffered formalin for subsequent histological processing. Five micron sections stained with hematoxylin and eosin (H&E) were evaluated microscopically for the degree of endometrial glandular proliferation according to the method of McPhail (McPhail, supra). The percent inhibition of endometrial proliferation at each dose level of the experimental compound was derived by comparison with the progesterone-stimulated animals alone.

The structures appear in SMILES notation.

Consider `COCC(=O)C1(OC(C)=O)CCC2C3CCC4=CC(=O)CCC4=C3C(c3ccc(C(C)=O)cc3)CC21C` (stereo not drawn) [Compound 123b, 17α-Acetoxy-11β-(4-acetylphenyl)-21-methoxy-19-norpregna-4,9-diene-3,20-dione], for which the “BINDING AFFINITY Progester” value in assay [1] came out at 64%. For the same compound, the “BINDING AFFINITY Glucocortic” value in assay [2] is 45%. The “BIOLOGICAL ACTIVITY antiClauberg” value in assay [3] stood at 77.

Regarding `COC1(C(C)=O)CCC2C3CCC4=CC(=O)CCC4=C3C(c3ccc(N(C)C)cc3)CC21C` (stereo not drawn) [Compound 97a, 17α-Methoxy-11β-[4-(N,N-dimethylamino)phenyl]-19-norpregna-4,9-diene-3,20-dione], in assay [1], the “BINDING AFFINITY Progester” value came to 120% and the “binding affinities compared with the standard, compound 69B” value is on record as “binding affinities greater than that observed for the standard”. Besides, the “BINDING AFFINITY Glucocortic” value in assay [2] is reported as 52%. The “BIOLOGICAL ACTIVITY antiClauberg” value in assay [3] stood at 110. Moreover, the “antiClauberg / oral antiprogestational activity, in words” value in assay [3] (versus the standard 69B) is given as “greater activity than the standard”.

For `COCC1(C(C)=O)CCC2C3CCC4=CC(=O)CCC4=C3C(c3ccc(N(C)C)cc3)CC21C` (stereo not drawn) [Compound 91, 17α-Methoxymethyl-11β-[4-(N,N-methylamino)phenyl]-19-norpregna-4,9-diene-3,20-dione], in assay [1], the “BINDING AFFINITY Progester” value stood at 171% and the “binding affinities compared with the standard, compound 69B” value is listed as “binding affinities greater than that observed for the standard”. Besides, the “BINDING AFFINITY Glucocortic” value in assay [2] was 59%. Besides, the “BIOLOGICAL ACTIVITY antiClauberg” value in assay [3] is “inactive”.

On to `COCC(=O)C1(OC)CCC2C3CCC4=CC(=O)CCC4=C3C(c3ccc(N4CCCCC4)cc3)CC21C` (stereo not drawn) [Compound 113c, 17α,21-Dimethoxy-11β-[4-(N-piperidino)phenyl]-19-norpregna-4,9-diene-3,20-dione], for which the “BINDING AFFINITY Progester” value in assay [1] is listed as 63%. Further, in assay [2], the “BINDING AFFINITY Glucocortic” value is listed as 45%. The “BIOLOGICAL ACTIVITY antiClauberg” value in assay [3] worked out at 70.

In the case of `COCC(=O)C1(O)CCC2C3CCC4=CC(=O)CCC4=C3C(c3ccc(C(C)=O)cc3)CC21C` (stereo not drawn) [Compound 122b, 17α-Hydroxy-11β-(4-acetylphenyl)-21-methoxy-19-norpregna-4,9-diene-3,20-dione], the “binding affinities compared with the standard, compound 69B” value in assay [1] was “binding affinities greater than that observed for the standard”.

With `CN(C)c1ccc([C@H]2C[C@@]3(C)[C@@H](CC[C@]3(OC=O)C(=O)COC=O)[C@@H]3CCC4=CC(=O)CCC4=C32)cc1` [Compound 139, 17α,21-Diformyloxy-11β-[4-(N,N-dimethylamino)phenyl]-19-norpregna-4,9-diene-3,20-dione], in assay [1], the “BINDING AFFINITY Progester” value stood at 30%. In addition, the “BINDING AFFINITY Glucocortic” value in assay [2] was 79%. The “BIOLOGICAL ACTIVITY antiClauberg” value in assay [3] is “inactive”.

On to `COCC(=O)C1(OC)CCC2C3CCC4=CC(=O)CCC4=C3C(c3ccc(N4CCCC4)cc3)CC21C` (stereo not shown) [Compound 113b], for which, in assay [1], the “BINDING AFFINITY Progester” value was 59%. Further, the “BINDING AFFINITY Glucocortic” value in assay [2] amounted to 34%.

As for `CC(=O)OC1(C(C)=O)CCC2C3CCC4=CC(=O)CCC4=C3C(c3ccc(C(C)=O)cc3)CC21C` (stereo not drawn) [Compound 73, 17α-Acetoxy-11β-(4-acetylphenyl)-19-norpregna-4,9-diene-3,20-dione], the “binding affinities compared with the standard, compound 69B” value in assay [1] is on record as “binding affinities greater than that observed for the standard”.

Turning to `COCC(=O)C1(OC)CCC2C3CCC4=CC(=O)CCC4=C3C(c3ccc(C(C)=O)cc3)CC21C` (stereo not drawn) [Compound 113d, 17α,21-Dimethoxy-11β-(4-acetylphenyl)-19-norpregna-4,9-diene-3,20-dione], the “binding affinities compared with the standard, compound 69B” value in assay [1] is on record as “binding affinities greater than that observed for the standard”.

In the case of `CC(=O)O[C@]1(C(C)=O)CC[C@H]2[C@@H]3CCC4=CC(=O)CCC4=C3[C@@H](c3ccc(N4CCCC4)cc3)C[C@@]21C` [Compound 70, 17α-Acetoxy-11β-[4-(N-pyrrolidino)phenyl]-19-norpregna-4,9-diene-3,20-dione], the “BINDING AFFINITY Progester” value in assay [1] turned out to be 79%. Besides, the “BIOLOGICAL ACTIVITY antiClauberg” value in assay [3] was “˜25”.
